Assay [1] has as its system Leishmania donovani. Put plainly: Intramacrophage Leishmania donovani assay (Assay 1), average number of amastigotes per cell (potency readout). In kind it is cell-based. The conditions noted are these: THP-1, 96 h, amastigotes in PMA-differentiated THP-1 macrophages, 96 h incubation, read-out: pEC50 value against Leishmania donovani (converted). The procedure: Assay 1. Intramacrophage Leishmania donovani Assay
The intramacrophage Leishmania assay was performed using a modified version of the method described in De Rycker et al. (Antimicrob Agents Chemother. 2013 July; 57(7):2913-22. Comparison of a high-throughput high-content intracellular Leishmania donovani assay with an axenic amastigote assay. De Rycker M, Hallyburton I, Thomas J, Campbell L, Wyllie S, Joshi D, Cameron S, Gilbert I H, Wyatt P G, Frearson J A, Fairlamb A H, Gray D W.). Procedure: 350 nl of compound was pre-dispensed into 384 well sterile intermediary plates. For single point screening, amphotericin B was added to all wells of column 24 as a positive control (final concentration 2 μM) and DMSO to column 23. For potency determinations, ten-point, one in three dilution curves were created with the highest concentration being 50 μM and on each plate a control curve of amphotericin B was included. Controls were as follows: columns 11 and 12: DMSO, columns 23 and 24: amphotericin B (final concentration 2 μM). To the intermediary plates, 35 μl of THP-1 media was added and plates were shaken for >5 min to ensure complete mixing. THP-1 cells (8,000 per well, 50 μl) were plated into black clear-bottom 384 well plates (Corning) in presence of 20 nM PMA. After 20 min at RT, the plates were incubated at 37° C. under 5% CO2 in a humidified incubator for 75 h. The cells were then washed with […] sterile phosphate buffered saline (PBS) supplemented with 1 mM CaCl2, 0.5 mM MgCl2, 0.1% (w/v) bovine serum albumin (PBS-A) and amastigotes were added to all wells at a multiplicity of infection of 5 (40,000 amastigotes per well). After 40 min at RT, plates were returned to the incubator. Amastigotes were incubated in the presence of THP-1 macrophages for 16 h. Any remaining extracellular amastigotes were subsequently removed with an overflow wash of 1 mL PBS-A per well (wash buffer is being aspirated from the top of the well as it is being dispensed) followed by addition of 25 μl of the compound pre-dilutions using a Fluidx Ipette-pro pipetting station. The final dilution of each compound was 200-fold. Plates were incubated for 96 h and then washed (250 μl PBS-A) and fixed (4% (v/v) formaldehyde-PBS, 30 min, RT). After fixation, the wells were washed with 250 μl PBS, stained (10 μg/mL DAPI, 0.4 μg mL-1 HCS Cellmask Deep Red in PBS+0.1% (v/v) Triton X-100, 30 min, RT) and washed with 250 μl PBS. Finally, PBS+0.05% (v/v) thimerosal was added to the wells, the plates were sealed and imaged on a high-content microscope (GE IN Cell 2000) using a 10× objective. Image analysis was carried out with GE IN Cell Analyzer 1000 Workstation using the “Multi Target Analysis” module. Settings for segmentation were as follows: nuclei: minimum area: 142.384 μm2, sensitivity: 81, method: top-hat; cells: characteristic area: 2500 μm2, sensitivity: 60, method: multiscale top-hat; organelles (amastigotes): granule size 1-3, 3 scales, sensitivity: 90, detection in entire cell. For each well, i) THP-1 cell count (cytotoxicity readout) and ii) average number of amastigotes per cell (potency readout) were calculated, both in terms of pEC50 values.

In assay [2] the test system is Leishmania donovani. Kind of assay: Leishmania donovani intracellular assay (Assay 5). The format is cell-based. The conditions noted are these: THP-1, 96 h, eGFP amastigotes in THP-1 cells, 96 h incubation, read-out: pEC50 value against Leishmania donovani (converted). The procedure: Assay 5. Leishmania donovani Intracellular Assay
Compounds were dispensed into black 384-well assay plates (Greiner) by acoustic dispensing (LabCyte ECHO). For potency determinations, eleven-point, one in three dilution curves were generated, with a top concentration of 50 μM. THP-1 human monocytes cells were dispensed in T225 tissue culture flasks and differentiated using 30 nM of PMA, after 24 hours they were infected overnight using Leishmania donovani expressing Green Fluorescent Protein (eGFP) amastigotes in the same T225 tissue culture flasks at a multiplicity of infection of 10. Next, any remaining free amastigotes were washed away with PBS and the infected THP-1 cells were harvested by trypsinisation. The infected cells were then plated into 384-well plates containing the compounds to be tested, at 3000 cells per well in RPMI media with 2% FBS and 25 mM Sodium bicarbonate. After 96 h incubation at 37° C. in presence of 5% CO2, the plates were fixed with 4% formaldehyde for 30 minutes, washed with PBS and stained with 0.1 mg/mL of DAPI for 30 minutes and washed again with PBS. The plates were imaged on a Perkin Elmer Opera high-content imaging system using a 20× air objective with two expositions, one for DAPI stain and other for eGFP. Images were analysed using the Acapella building blocks system (Perkin Elmer). The image analysis algorithm first identified the THP-1 nuclei followed by demarcation of the cytoplasm and identification of intracellular amastigotes. This algorithm reported mean number of parasites per THP-1 cell, the percentage of infected THP-1 cells and the total number of THP-1 cells.

Where only a bound is given, the exact number is not on record here.

Regarding `O=C(Nc1cccc(-c2ccn3c(N4CCOCC4)cnc3n2)c1)N1CCCC1` [Example 1, N-(3-(3-morpholinoimidazo[1,2-a]pyrimidin-7-yl)phenyl)pyrrolidine-1-carboxamide], the EC50 was 0.251 to 10 µM in the assay with Leishmania donovani [1] and 0.126 to 10 µM in the assay with Leishmania donovani [2]. As to `O=C(Nc1ccc(F)c(-c2cnn3c(Br)cnc3n2)c1)N1CCCC1` [Example 6, N-(3-(7-bromoimidazo[1,2-b][1,2,4]triazin-3-yl)-4-fluorophenyl)pyrrolidine-1-carboxamide], the EC50 in the assay on Leishmania donovani [1] is 0.251 to 10 µM. For `O=C(Nc1ccc(F)c(-c2cnn3c(N4CCOCC4)cnc3n2)c1)N1CCCC1` [Example 8, N-(4-fluoro-3-(7-morpholinoimidazo[1,2-b][1,2,4]triazin-3-yl)phenyl)pyrrolidine-1-carboxamide], the EC50 in the assay with Leishmania donovani [1] was 0.251 to 10 µM. Same read-out and setting: in the case of `O=C(Nc1cccc(-c2cnn3c(N4CCOCC4)cnc3n2)c1)N1CCCC1` [Example 9, N-(3-(7-morpholinoimidazo[1,2-b][1,2,4]triazin-3-yl)phenyl)pyrrolidine-1-carboxamide] it was 0.251 to 10 µM; in that of `O=C(Nc1cccc(-c2cnn3c(-c4ccccc4)cnc3n2)c1)N1CCCC1` [Example 10, N-(3-(7-phenylimidazo[1,2-b][1,2,4]triazin-3-yl)phenyl)pyrrolidine-1-carboxamide], 0.251 to 10 µM; in that of `O=C(Nc1ccc(F)c(-c2cnn3ccnc3n2)c1)N1CCCC1` [Example 11, N-(4-fluoro-3-(imidazo[1,2-b][1,2,4]triazin-3-yl)phenyl)pyrrolidine-1-carboxamide], 12.6 to 20 µM. With `Cc1cc(-c2cc(NC(=O)N3CCCC3)ccc2F)nc2ncc(N3CCOCC3)n12` [Example 12, N-(4-fluoro-3-(5-methyl-3-morpholinoimidazo[1,2-a]pyrimidin-7-yl)phenyl)pyrrolidine-1-carboxamide], the results for the EC50 in the assay on Leishmania donovani [1] and with Leishmania donovani [2] were 0.251 to 10 µM and 0.126 to 10 µM, respectively. Take `CCc1cc(-c2cc(NC(=O)N3CCCC3)ccc2F)nc2ncc(N3CCOCC3)n12` [Example 13, N-(3-(5-ethyl-3-morpholinoimidazo[1,2-a]pyrimidin-7-yl)-4-fluorophenyl)pyrrolidine-1-carboxamide]: the EC50 was 0.251 to 10 µM in the assay with Leishmania donovani [1] and 0.126 to 10 µM in the assay with Leishmania donovani [2]. Consider `Cc1cn2c(N3CCOCC3)cnc2nc1-c1cccc(NC(=O)N2CCCC2)c1` [Example 14, N-(3-(6-methyl-3-morpholinoimidazo[1,2-a]pyrimidin-7-yl)phenyl)pyrrolidine-1-carboxamide], for which the EC50 in the assay with Leishmania donovani [1] was above 50.1 µM; in the assay on Leishmania donovani [2] it was 12.6 to 39.8 µM.

Consider `Cc1cn2c(N3CCOCC3)cnc2nc1-c1cc(NC(=O)N2CCCC2)ccc1F` [Example 15, N-(4-fluoro-3-(6-methyl-3-morpholinoimidazo[1,2-a]pyrimidin-7-yl)phenyl)pyrrolidine-1-carboxamide], for which the figures for the EC50 with Leishmania donovani [1] and in the assay with Leishmania donovani [2] were 12.6 to 20 µM and 12.6 to 39.8 µM, respectively. Turning to `CC(C)c1cnc2nc(-c3cc(NC(=O)N4CCCC4)ccc3F)ccn12` [Example 18, N-(4-fluoro-3-(3-isopropylimidazo[1,2-a]pyrimidin-7-yl)phenyl)pyrrolidine-1-carboxamide], the EC50 was 0.251 to 10 µM with Leishmania donovani [1] and 0.126 to 10 µM with Leishmania donovani [2]. Taken in the same sequence, the figures for `O=C(Nc1ccc(F)c(-c2ccn3c(CN4CCOCC4)cnc3n2)c1)N1CCCC1` [Example 20, N-(4-fluoro-3-(3-(morpholinomethyl)imidazo[1,2-a]pyrimidin-7-yl)phenyl)pyrrolidine-1-carboxamide] were 12.6 to 20 µM and 0.126 to 10 µM. The corresponding values for `O=C(Nc1ccc(F)c(-c2ccn3c(-c4ccc(CN5CCOCC5)cc4)cnc3n2)c1)N1CCCC1` [Example 21, N-(4-fluoro-3-(3-(4-(morpholinomethyl)phenyl)imidazo[1,2-a]pyrimidin-7-yl)phenyl)pyrrolidine-1-carboxamide] are 0.251 to 10 µM and 0.126 to 10 µM. Take `O=C(Nc1ccc(F)c(-c2ccn3c(N4CCOCC4)cnc3n2)c1)N1CC[C@@H](F)C1` [Example 23, 3-fluoro-N-(4-fluoro-3-(3-morpholinoimidazo[1,2-a]pyrimidin-7-yl)phenyl)pyrrolidine-1-carboxamide]: in the assay on Leishmania donovani [2], the EC50 is 0.126 to 10 µM.

Consider `C[C@H]1CCN(C(=O)Nc2ccc(F)c(-c3ccn4c(N5CCOCC5)cnc4n3)c2)C1` [Example 34a], for which the EC50 in the assay with Leishmania donovani [1] was 0.251 to 10 µM. `O=C(Nc1ccc(F)c(-c2ccn3c(C4COCCN4)cnc3n2)c1)N1CCCC1` (centres unmarked) [Example 38, N-(4-fluoro-3-(3-(morpholin-3-yl)imidazo[1,2-a]pyrimidin-7-yl)phenyl)pyrrolidine-1-carboxamide]: the EC50 with Leishmania donovani [1] was 12.6 to 20 µM. Take `O=C(Nc1ccc(F)c(-c2ccn3c(CC4CCCO4)cnc3n2)c1)N1CCCC1` (centres unmarked) [Example 45, N-(4-fluoro-3-(3-((tetrahydrofuran-2-yl)methyl)imidazo[1,2-a]pyrimidin-7-yl)phenyl)pyrrolidine-1-carboxamide]: the EC50 in the assay with Leishmania donovani [2] is 0.126 to 10 µM. Take `O=C(Nc1ccc(F)c(-c2ccn3c(N4CCOCC4)cnc3n2)c1)N1CCC1` [Example 51, N-(4-fluoro-3-(3-morpholinoimidazo[1,2-a]pyrimidin-7-yl)phenyl)azetidine-1-carboxamide]: the EC50 in the assay with Leishmania donovani [2] was 0.126 to 10 µM. Take `O=C1CN(c2cnc3nc(-c4cc(NC(=O)N5CCCC5)ccc4F)ccn23)CCN1` [Example 52, N-(4-fluoro-3-(3-(3-oxopiperazin-1-yl)imidazo[1,2-a]pyrimidin-7-yl)phenyl)pyrrolidine-1-carboxamide]: in the assay on Leishmania donovani [1], the EC50 was above 50.1 µM. Take `N#Cc1ccc(NC(=O)N2CCCC2)cc1-c1ccn2c(N3CCOCC3)cnc2n1` [N-(4-cyano-3-(3-morpholinoimidazo[1,2-a]pyrimidin-7-yl)phenyl)pyrrolidine-1-carboxamide]: in the assay with Leishmania donovani [1], the EC50 was above 50.1 µM. Regarding `Cc1cc(F)c(-c2ccn3c(N4CCOCC4)cnc3n2)cc1NC(=O)N1CCCC1` [N-(4-fluoro-2-methyl-5-(3-morpholinoimidazo[1,2-a]pyrimidin-7-yl)phenyl)pyrrolidine-1-carboxamide], in the assay on Leishmania donovani [1], the EC50 was above 50.1 µM. The same measure, in the same setting: under `CC1(C)CCCN1C(=O)Nc1ccc(F)c(-c2ccn3c(N4CCOCC4)cnc3n2)c1` [N-(4-fluoro-3-(3-morpholinoimidazo[1,2-a]pyrimidin-7-yl)phenyl)-2,2-dimethylpyrrolidine-1-carboxamide] stands above 50.1 µM; under `CC1(C)CN(C(=O)Nc2ccc(F)c(-c3ccn4c(N5CCOCC5)cnc4n3)c2)C1` [N-(4-fluoro-3-(3-morpholinoimidazo[1,2-a]pyrimidin-7-yl)phenyl)-3,3-dimethylazetidine-1-carboxamide], above 50.1 µM; under `CC1(C)CCN(C(=O)Nc2ccc(F)c(-c3ccn4c(N5CCOCC5)cnc4n3)c2)C1` [N-(4-fluoro-3-(3-morpholinoimidazo[1,2-a]pyrimidin-7-yl)phenyl)-3,3-dimethylpyrrolidine-1-carboxamide], above 50.1 µM.
